The values that follow come from ChEMBL document CHEMBL1127754, “Design and synthesis of seco-oxysterol analogs as potential inhibitors of 3-hydroxy-3-methylglutaryl-coenzyme A (HMG-CoA) reductase gene transcription” (J Med Chem, 1994).

What all share (assay type): cell-based
In assay [1] the target is T1, 3-hydroxy-3-methylglutaryl-coenzyme A reductase (Homo sapiens, UniProt P04035).
T1 sequence (P04035 whole entry): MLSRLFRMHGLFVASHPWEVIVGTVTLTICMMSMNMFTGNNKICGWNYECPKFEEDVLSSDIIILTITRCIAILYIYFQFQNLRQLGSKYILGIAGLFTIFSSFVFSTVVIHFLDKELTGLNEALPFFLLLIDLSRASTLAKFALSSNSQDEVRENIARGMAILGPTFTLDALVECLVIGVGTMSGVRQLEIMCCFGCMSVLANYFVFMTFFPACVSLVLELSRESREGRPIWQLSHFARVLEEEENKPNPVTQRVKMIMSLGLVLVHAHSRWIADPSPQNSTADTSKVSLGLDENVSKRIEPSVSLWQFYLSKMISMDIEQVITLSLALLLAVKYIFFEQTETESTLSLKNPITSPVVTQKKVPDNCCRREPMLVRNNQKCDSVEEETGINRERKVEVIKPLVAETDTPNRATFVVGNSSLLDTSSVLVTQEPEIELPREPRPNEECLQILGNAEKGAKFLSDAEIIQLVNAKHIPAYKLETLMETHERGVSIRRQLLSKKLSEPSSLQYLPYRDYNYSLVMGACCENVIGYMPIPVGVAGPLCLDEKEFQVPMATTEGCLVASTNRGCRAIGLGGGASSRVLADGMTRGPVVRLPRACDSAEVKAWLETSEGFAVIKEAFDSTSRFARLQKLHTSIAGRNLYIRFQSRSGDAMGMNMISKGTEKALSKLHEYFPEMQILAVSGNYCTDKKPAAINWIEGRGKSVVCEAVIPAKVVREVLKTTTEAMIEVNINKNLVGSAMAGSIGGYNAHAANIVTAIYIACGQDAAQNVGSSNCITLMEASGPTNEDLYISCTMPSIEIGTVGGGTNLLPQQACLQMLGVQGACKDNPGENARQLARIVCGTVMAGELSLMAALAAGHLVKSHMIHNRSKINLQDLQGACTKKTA
In words: Tested for its inhibitory activity against HMG-CoA reductase transcription in HepG2 cells.

Assay [2] concerns the target T2, 3-hydroxy-3-methylglutaryl-coenzyme A reductase (Homo sapiens) (UniProt P04035).
T2 sequence (whole entry): T1 sequence (P04035 whole entry)
The assay can be described thus: Tested for its percent inhibition against HMG-CoA reductase transcription in HepG2 cells in HMG-CoA reductase assay. The conditions noted are these: concentration not given here.

The target of assay [3] is T2, 3-hydroxy-3-methylglutaryl-coenzyme A reductase (Homo sapiens). In words: Tested for its percent inhibition against HMG-CoA reductase transcription in HepG2 cells in HMG-CoA reductase m-RNA assay. To be noted: concentration not given here.
Assay [4] shares this target. In words: Tested for the percent inhibition against HMG-CoA reductase transcription in HepG2 cells. The conditions noted are these: concentration not given here. Also noted: concentration or dose not given beside the values.
The target is the same in assay [5]. In words: Tested for its percent inhibition against HMG-CoA reductase transcription in HepG2 cells in LDL-receptor binding assay. The conditions noted are these: concentration not given here.

As usually defined, the IC50 is the concentration needed to halve the response being measured. A word on the inhibition: it is the percentage by which the read-out fell short of the control. Consider `CC(C)(O)CCCCc1cccc(/C=C/[C@]2(C)CC[C@@H](O)CC2)c1`, for which the IC50 in assay [1] was found to be 10 µM. The inhibition was determined as 29.7% in assay [2], 72.7% in assay [3] and 46.3% in assay [4].
As to `CC(C)(O)CCCCc1ccc(CC[C@]2(C)CC[C@@H](O)CC2)cc1`, the inhibition in assay [4] was 0%.
Molecule `CC(C)(O)CCCCc1cccc(CC[C@]2(C)CC[C@@H](O)CC2)c1` gave an inhibition in assay [4] of 29.3%.
In assay [4], `CC(C)(O)CCCC[C@H]1CC[C@@H](/C=C/[C@]2(C)CC[C@@H](O)CC2)C1` (stereo in doubt; 6) gave an inhibition of 0%.
On to `CC(C)(O)CCCC[C@H]1CC[C@@H](CC[C@]2(C)CC[C@@H](O)CC2)C1`, for which, in assay [4], the inhibition is 0%.
Take `CC(C)CCCC[C@@H]1C[C@H](/C=C/[C@]2(C)CC[C@@H](O)CC2)[C@@H](O)[C@H]1O` (stereo in doubt; 37): the inhibition in assay [4] was 0%.
Molecule `C[C@H](CCCC(C)(C)O)[C@H]1CC[C@H]2[C@@H]3CC=C4C[C@@H](O)CC[C@]4(C)[C@H]3CC[C@]12C` displayed an IC50 in assay [1] of 0.3 µM. Moreover, the inhibition was 48.4% in assay [2], 58.2% in assay [3], 64% in assay [5] and 70% in assay [4].
In turn, `CC(C)CCCC[C@@H]1C[C@H](/C=C/[C@]2(C)CC[C@@H](O)CC2)[C@@H](O)[C@H]1O` (stereo in doubt; 7) returned an inhibition in assay [4] of 0%.
In the case of `CC(C)(O)CCCCc1ccc(/C=C/[C@]2(C)CC[C@@H](O)CC2)cc1`, in assay [4], the inhibition is 0%.
Same read-out and setting: under `CC(C)(O)CCCC[C@H]1CC[C@@H](/C=C/[C@]2(C)CC[C@@H](O)CC2)C1` (stereo in doubt; 28) stands 0%.
